Laboratory results from patent US11905294B2, “Imidazo[1,5-a]pyrazine derivatives as PI3Kδ inhibitors” (BEIGENE, LTD., priority 2017, dated 2024).
Like-named read-outs stand apart in the source and are kept apart here.

Legend:
Format in all cases: biochemical
[1] = molecular target: PI3K (p110γ) (Homo sapiens, UniProt P48736); test: PI3Kγ assay (ADP-Glo Kinase Assay); settings: recombinant enzyme; IC50 (nM) or max inhibition (%) at 0.5 μM
[2] = molecular target: PI3K (p110α/p85α) (Homo sapiens, UniProt P42336); test: PI3Kα assay (ADP-Glo Kinase Assay); settings: recombinant enzyme; IC50 (nM) or max inhibition (%) at 0.5 μM
Sequence of PI3K (p110α/p85α) (P42336 whole entry): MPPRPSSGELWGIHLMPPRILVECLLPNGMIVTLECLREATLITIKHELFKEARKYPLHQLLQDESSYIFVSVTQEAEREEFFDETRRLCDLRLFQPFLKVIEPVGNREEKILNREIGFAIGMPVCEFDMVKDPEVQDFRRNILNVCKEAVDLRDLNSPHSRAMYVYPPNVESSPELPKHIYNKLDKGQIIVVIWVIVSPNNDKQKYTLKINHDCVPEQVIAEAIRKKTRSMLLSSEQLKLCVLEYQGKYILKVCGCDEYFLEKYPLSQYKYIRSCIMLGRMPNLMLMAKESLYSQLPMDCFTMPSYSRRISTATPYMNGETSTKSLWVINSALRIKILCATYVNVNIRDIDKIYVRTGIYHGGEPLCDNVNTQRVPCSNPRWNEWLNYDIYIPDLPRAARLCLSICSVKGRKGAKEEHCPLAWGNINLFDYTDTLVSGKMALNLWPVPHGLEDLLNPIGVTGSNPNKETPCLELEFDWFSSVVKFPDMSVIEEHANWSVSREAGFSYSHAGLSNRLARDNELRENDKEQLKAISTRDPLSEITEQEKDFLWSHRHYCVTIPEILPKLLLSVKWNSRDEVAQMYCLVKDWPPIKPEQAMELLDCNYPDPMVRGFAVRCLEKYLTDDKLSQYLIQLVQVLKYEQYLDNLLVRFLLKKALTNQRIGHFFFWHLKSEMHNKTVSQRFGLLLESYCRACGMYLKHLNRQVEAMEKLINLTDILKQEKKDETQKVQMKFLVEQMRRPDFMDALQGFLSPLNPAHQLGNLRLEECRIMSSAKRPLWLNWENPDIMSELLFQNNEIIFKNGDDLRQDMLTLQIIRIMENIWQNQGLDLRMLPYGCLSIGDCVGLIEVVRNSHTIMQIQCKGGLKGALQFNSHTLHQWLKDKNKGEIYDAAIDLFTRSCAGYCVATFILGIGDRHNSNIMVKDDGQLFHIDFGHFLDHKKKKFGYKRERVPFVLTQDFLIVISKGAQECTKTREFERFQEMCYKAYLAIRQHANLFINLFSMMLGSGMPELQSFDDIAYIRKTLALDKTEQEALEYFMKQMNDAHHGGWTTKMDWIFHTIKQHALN
Sequence of PI3K (p110α/p85α) (P27986 whole entry partner): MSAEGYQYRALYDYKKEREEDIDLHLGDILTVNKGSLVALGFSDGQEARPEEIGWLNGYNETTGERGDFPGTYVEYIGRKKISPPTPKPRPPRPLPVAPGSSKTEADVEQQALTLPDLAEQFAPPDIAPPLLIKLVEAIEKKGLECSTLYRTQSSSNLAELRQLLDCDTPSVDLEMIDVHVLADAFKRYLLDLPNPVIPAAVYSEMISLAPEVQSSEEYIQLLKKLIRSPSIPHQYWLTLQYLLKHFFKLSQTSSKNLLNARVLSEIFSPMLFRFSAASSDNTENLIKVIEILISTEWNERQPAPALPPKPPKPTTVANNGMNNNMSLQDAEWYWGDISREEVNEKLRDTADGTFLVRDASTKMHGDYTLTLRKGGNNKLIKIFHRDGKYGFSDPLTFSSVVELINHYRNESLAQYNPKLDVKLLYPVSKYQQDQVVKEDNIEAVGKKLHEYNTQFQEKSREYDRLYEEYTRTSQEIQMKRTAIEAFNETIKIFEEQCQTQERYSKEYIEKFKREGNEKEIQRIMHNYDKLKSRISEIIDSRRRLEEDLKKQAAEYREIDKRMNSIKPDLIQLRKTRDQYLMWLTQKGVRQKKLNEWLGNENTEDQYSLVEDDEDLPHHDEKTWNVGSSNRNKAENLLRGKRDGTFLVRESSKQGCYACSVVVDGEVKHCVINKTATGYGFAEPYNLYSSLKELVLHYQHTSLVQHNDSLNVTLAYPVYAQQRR

[3] = molecular target: PI3K (p110β/p85α) (Homo sapiens, UniProt P42338); test: PI3Kβ assay (ADP-Glo Kinase Assay)
Sequence of PI3K (p110β/p85α) (P42338 whole entry): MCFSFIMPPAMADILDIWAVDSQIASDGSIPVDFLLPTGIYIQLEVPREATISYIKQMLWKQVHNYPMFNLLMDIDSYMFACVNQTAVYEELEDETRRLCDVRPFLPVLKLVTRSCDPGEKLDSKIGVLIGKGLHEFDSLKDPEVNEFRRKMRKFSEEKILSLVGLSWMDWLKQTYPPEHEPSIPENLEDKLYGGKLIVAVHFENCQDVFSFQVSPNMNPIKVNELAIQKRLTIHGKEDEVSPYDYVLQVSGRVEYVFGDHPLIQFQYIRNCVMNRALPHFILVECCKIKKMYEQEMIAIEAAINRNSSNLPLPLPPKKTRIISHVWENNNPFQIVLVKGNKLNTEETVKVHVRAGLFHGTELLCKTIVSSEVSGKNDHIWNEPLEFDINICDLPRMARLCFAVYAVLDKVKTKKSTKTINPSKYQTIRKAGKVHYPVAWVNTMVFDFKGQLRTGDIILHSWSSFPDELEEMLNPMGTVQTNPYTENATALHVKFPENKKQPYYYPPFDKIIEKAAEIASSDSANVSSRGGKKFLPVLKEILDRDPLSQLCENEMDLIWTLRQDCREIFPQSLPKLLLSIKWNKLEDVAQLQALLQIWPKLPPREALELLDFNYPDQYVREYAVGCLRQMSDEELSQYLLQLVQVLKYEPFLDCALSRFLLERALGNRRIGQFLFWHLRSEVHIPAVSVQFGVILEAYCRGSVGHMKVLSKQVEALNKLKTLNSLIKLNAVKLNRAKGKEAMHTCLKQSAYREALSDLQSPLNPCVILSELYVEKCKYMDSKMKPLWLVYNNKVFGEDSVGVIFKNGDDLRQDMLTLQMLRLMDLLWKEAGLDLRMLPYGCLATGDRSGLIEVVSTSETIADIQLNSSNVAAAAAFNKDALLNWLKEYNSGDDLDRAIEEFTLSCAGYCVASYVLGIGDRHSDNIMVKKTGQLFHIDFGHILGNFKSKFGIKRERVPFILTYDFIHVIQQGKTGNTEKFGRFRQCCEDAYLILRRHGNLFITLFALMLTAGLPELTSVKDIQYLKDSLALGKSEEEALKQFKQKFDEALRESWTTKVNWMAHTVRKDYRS
Sequence of PI3K (p110β/p85α) (P27986 whole entry partner): as the sequence (P27986 whole entry partner) above

[4] = molecular target: PI3K (p110δ/p85α) (Homo sapiens, UniProt O00329); test: PI3Kδ assay (ADP-Glo Kinase Assay); settings: recombinant enzyme; IC50 (nM) or max inhibition (%) at 0.5 μM
Sequence of PI3K (p110δ/p85α) (O00329 whole entry): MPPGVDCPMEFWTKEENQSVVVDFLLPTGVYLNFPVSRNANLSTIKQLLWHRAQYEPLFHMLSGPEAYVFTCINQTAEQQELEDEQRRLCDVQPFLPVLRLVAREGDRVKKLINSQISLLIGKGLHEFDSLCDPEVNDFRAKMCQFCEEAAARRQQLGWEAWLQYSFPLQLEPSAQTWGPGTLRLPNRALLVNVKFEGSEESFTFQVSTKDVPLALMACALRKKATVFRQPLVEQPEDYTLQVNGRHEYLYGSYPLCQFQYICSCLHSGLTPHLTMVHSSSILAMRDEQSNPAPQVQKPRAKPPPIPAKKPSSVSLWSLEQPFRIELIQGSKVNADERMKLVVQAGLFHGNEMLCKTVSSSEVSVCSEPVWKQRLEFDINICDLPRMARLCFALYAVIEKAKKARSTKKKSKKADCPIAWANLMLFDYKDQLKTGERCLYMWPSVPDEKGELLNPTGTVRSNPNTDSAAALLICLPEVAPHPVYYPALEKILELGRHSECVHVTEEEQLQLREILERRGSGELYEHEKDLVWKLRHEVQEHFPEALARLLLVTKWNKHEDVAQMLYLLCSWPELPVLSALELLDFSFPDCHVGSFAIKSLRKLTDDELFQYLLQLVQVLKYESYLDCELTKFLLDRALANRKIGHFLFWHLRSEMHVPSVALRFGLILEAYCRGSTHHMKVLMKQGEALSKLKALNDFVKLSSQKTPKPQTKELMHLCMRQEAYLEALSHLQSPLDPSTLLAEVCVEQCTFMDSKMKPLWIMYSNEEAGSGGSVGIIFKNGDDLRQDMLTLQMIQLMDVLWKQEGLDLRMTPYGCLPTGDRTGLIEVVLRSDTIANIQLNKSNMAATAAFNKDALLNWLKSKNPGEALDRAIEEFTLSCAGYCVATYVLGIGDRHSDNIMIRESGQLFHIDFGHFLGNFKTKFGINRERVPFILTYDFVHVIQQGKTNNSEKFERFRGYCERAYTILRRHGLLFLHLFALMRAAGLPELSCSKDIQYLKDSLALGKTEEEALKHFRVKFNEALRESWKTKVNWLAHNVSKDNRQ
Sequence of PI3K (p110δ/p85α) (P27986 whole entry partner): as the sequence (P27986 whole entry partner) above
Description: Compounds disclosed herein were tested for inhibition of PI3Kδ kinase activity using commercial ADP-Glo™ Kinase Assay (Promega Corporation) and following the manufacture's instruction. Briefly, recombinant PI3K (p110δ/p85α) enzyme, lipid kinase substrate and a serial dilution of compounds disclosed herein were incubated for 0.5 hr at room temperature. ATP was added to initiate the kinase reaction. After incubation for 1 hr at room temperature, ADP-Glo™ reagent was added to terminate the kinase reaction and deplete the remaining ATP. After incubation for 1 hr at room temperature, kinase detection reagent was added to simultaneously convert ADP to ATP and allow the newly synthesized ATP to be measured using a luciferase/luciferin reaction. After incubation for 0.5 hr at room temperature, the luminescence generated was measured on a PHERAstar FS plate reader (BMG LABTECH). The residual enzyme activity in presence of increasing concentrations of compounds was calculated based on the luminescence. The IC50 for each compound was derived from fitting the data to the four-parameter logistic equation by Graphpad Prism software.

[5] = read-out: Enzyme activity IC50 PI3Kβ

Sequence of PI3K (p110γ) (P48736 whole entry): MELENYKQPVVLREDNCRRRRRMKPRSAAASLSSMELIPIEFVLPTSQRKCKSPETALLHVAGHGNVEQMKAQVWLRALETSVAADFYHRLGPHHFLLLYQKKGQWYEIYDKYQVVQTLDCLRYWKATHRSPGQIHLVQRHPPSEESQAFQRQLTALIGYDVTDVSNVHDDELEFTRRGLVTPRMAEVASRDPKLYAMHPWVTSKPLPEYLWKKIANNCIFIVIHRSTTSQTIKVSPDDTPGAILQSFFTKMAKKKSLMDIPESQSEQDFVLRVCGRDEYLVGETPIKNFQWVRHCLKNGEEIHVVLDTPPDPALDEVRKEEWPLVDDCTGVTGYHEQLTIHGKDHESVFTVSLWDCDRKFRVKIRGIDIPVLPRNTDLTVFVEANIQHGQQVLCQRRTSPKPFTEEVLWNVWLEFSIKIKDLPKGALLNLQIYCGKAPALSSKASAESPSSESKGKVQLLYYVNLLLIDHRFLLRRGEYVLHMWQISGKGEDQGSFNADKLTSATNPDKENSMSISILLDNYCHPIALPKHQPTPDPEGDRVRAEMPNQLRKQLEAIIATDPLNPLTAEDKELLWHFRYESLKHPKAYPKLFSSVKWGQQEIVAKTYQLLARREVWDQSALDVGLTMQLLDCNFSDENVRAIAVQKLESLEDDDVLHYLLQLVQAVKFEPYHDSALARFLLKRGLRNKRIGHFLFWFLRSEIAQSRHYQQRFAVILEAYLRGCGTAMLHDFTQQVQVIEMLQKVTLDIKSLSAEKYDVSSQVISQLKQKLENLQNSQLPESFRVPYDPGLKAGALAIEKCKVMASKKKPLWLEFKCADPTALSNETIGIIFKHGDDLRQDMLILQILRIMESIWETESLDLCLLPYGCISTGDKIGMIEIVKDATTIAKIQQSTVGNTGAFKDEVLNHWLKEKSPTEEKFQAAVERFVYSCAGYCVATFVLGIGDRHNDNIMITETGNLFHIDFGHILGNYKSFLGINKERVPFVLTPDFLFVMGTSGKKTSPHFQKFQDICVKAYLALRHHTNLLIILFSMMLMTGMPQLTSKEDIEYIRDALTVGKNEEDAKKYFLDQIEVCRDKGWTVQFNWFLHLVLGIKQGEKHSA

| Compound | IC50 [1] | IC50 [2] | IC50 [3, 5] | IC50 [4] | IC50 ([3]; recombinant enzyme, 2 hrs kinase reaction, IC50 (nM) or max inhibition (%) at 0.5 μM) |
| --- | --- | --- | --- | --- | --- |
| Cc1nc([C@@H](C)c2cc(Cl)c(F)c(C(=O)N[C@H]3CCC[C@H]3O)c2OC(C)C)n2ccnc(N)c12 [Compound 25, 3-((S)-1-(8-amino-1-methylimidazo[1,5-a]pyrazin-3-yl)ethyl)-5-chloro-6-fluoro-N-((1S,2R)-2-hydroxycyclopentyl)-2-isopropoxybenzamide] | 6000 nM | 24000 nM | 8700 nM | 1.9 nM | – |
| Cc1nc(C(C)c2cc(Cl)c(F)c(C(=O)N[C@H]3CC[C@@H](O)C3)c2OC(C)C)n2ccnc(N)c12 (single isomer, unassigned) [Compound 14A] | 7900 nM | 18000 nM | 13000 nM | 1.4 nM | – |
| COc1ccc([C@@H](C)NC(=O)c2c(F)c(Cl)cc([C@H](C)c3nc(C)c4c(N)nccn34)c2OC(C)C)cc1 [Compound 36, 3-((S)-1-(8-amino-1-methylimidazo[1,5-a]pyrazin-3-yl)ethyl)-5-chloro-6-fluoro-2-isopropoxy-N-((R)-1-(4-methoxyphenyl)ethyl)benzamide] | 460 nM | 9500 nM | 13000 nM | 2 nM | – |
| Cc1nc(C(C)c2cc(Cl)c(F)c(C(=O)NCC3(O)CC3)c2OC(C)C)n2ccnc(N)c12 (stereo not shown) [Compound 10, 3-(1-(8-amino-1-methylimidazo[1,5-a]pyrazin-3-yl)ethyl)-5-chloro-6-fluoro-N-((1-hydroxycyclopropyl)methyl)-2-isopropoxybenzamide] | 9000 nM | 34000 nM | 22000 nM | 3 nM | – |
| (S)-3-(1-(8-amino-1-methylimidazol[1,5-a]pyrazin-3-yl)ethyl)-5-chloro-6-fluoro-2-isopropoxy-N-(4-methoxyphenyl)benzamide [Compound 29] | 2100 nM | 11000 nM | – | 1.1 nM | 9900 nM |
| Cc1nc([C@@H](C)c2cc(Cl)c(F)c(C(=O)Nc3ccc(F)cc3)c2OC(C)C)n2ccnc(N)c12 [Compound 18, (S)-3-(1-(8-amino-1-methylimidazo[1,5-a]pyrazin-3-yl)ethyl)-5-chloro-6-fluoro-N-(4-fluorophenyl)-2-isopropoxybenzamide] | 6500 nM | 19000 nM | 12000 nM | 2.4 nM | – |
| Cc1nc([C@@H](C)c2cc(Cl)c(F)c(C(=O)N3CCC4(CC3)COC4)c2OC(C)C)n2ccnc(N)c12 [Compound 64, (S)-(3-(1-(8-amino-1-methylimidazo[1,5-a]pyrazin-3-yl)ethyl)-5-chloro-6-fluoro-2-isopropoxyphenyl)(2-oxa-7-azaspiro[3.5]nonan-7-yl)methanone] | 14000 nM | > 50000 nM | > 50000 nM | 1.6 nM | – |
| Cc1nc([C@@H](C)c2cc(Cl)c(F)c(C(=O)N[C@H]3CCCC[C@H]3O)c2OC(C)C)n2ccnc(N)c12 [Compound 47, 3-((S)-1-(8-amino-1-methylimidazo[1,5-a]pyrazin-3-yl)ethyl)-5-chloro-6-fluoro-N-((1S,2R)-2-hydroxycyclohexyl)-2-isopropoxybenzamide] | 5800 nM | 27000 nM | 26000 nM | 2.5 nM | – |
| Cc1nc(C(C)c2cc(Cl)c(F)c(C(=O)NC3CC3)c2OC(C)C)n2ccnc(N)c12 (stereo not shown) [Compound 11, 3-(1-(8-amino-1-methylimidazo[1,5-a]pyrazin-3-yl)ethyl)-5-chloro-N-cyclopropyl-6-fluoro-2-isopropoxybenzamide] | 7300 nM | 31000 nM | 6200 nM | 2 nM | – |
| Cc1nc([C@@H](C)c2cc(Cl)c(F)c(C(=O)NCC3CCN(C)CC3)c2OC(C)C)n2ccnc(N)c12 [Compound 30, (S)-3-(1-(8-amino-1-methylimidazo[1,5-a]pyrazin-3-yl)ethyl)-5-chloro-6-fluoro-2-isopropoxy-N-((1-methylpiperidin-4-yl)methyl)benzamide] | 7700 nM | 17000 nM | 14000 nM | 0.97 nM | – |
